Results reported in patent US20070167528A1, “Methods of treating hepatocellular carcinoma with denspm” (Genzyme Corporation, priority 2004, published 2007).

Tests used:
[1] = Physical and chemical stability of DENSPM preparations at room temperature; type: physicochemical
Procedure: DENSPM may be supplied as a lyophilized powder, for example packaged in 10 mL clear glass vials containing 215 mg. Such a lyophilized powder may be prepared by dissolving DENSPM hydrochloride in sterile WFI to provide a 5% solution. Such solution may be pH adjusted to a pH of preferably between about 5.8 and 6.2, most preferably 6.0, with 2N NaOH. 4.3 ml of this solution is sterile filled into the glass vials thru Millipak (R) 0.45 and 0.22 micron filters and then lyophilized. […] DENSPM is reconstituted with 4.3 mL of water for injection, USP. The resulting solution contains 50 mg/mL of DENSPM and is chemically and physically stable for up to approximately 96 hours at room temperature. When further diluted in 50 mL normal saline, the resulting admixture is chemically and physically stable for up to 24 hours when stored at room temperature. After reconstitution, the drug is normally used within 8 hours because it contains no preservatives.

[2] = Solubility of DENSPM hydrochloride salt in sterile water for injection; type: physicochemical; settings: as its hydrochloride salt
From the text: The terms “pharmaceutical composition” and “pharmaceutical preparation” are used interchangeably herein to mean DENSPM in association with a pharmaceutically-acceptable carrier. Excipients and/or adjuvants may optionally be added to the pharmaceutical preparations. DENSPM preparations may be conveniently provided in unit dosage form and may be prepared by methods well-known in the art of pharmacy. Formulations suitable for intravenous administration are preferred. […] Such a solution may be filled into individual dose vials and lyophilized for future reconstitution and administration.

[3] = stated as known effect of DENSPM; cited from earlier work

- chemical and physical stability of diluted admixture ([1]; further diluted in 50 mL normal saline, stored at room temperature): up to 24 hours
- physical and chemical stability of lyophilized powder ([1]; lyophilized powder from 5% DENSPM hydrochloride solution, pH about 6.0, stored at room temperature): physically and chemically stable
- chemical and physical stability of reconstituted solution ([1]; reconstituted with 4.3 mL water for injection, 50 mg/mL, room temperature): ≤ 96 h
- solubility [2]: relatively high solubility
Structure (SMILES): CCNCCCNCCCNCCCNCC [DENSPM, N,N′-Bis[3-(ethylamino)propyl],1,3-propanediamine]
- serum creatinine levels [3]: transiently and reversibly elevate serum creatinine levels
